From PMC5504357, “Antifungal Potential of Copper(II), Manganese(II) and Silver(I) 1,10-Phenanthroline Chelates Against Multidrug-Resistant Fungal Species Forming the Candida haemulonii Complex: Impact on the Planktonic and Biofilm Lifestyles” (Frontiers in Microbiology, 2017)

How the values were obtained:
A549 cells = assay: Mammalian cell toxicity (MTT assay) and selectivity index; assay type: cell-based, Human; settings: MTT, 48 h incubation
In short: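 A549 cells were exposed to compounds (0.0313–512 μg/mL) in DMEM for 48 h at 37 °C, 5% CO2. Viability was measured by MTT (3 h, dark), with formazan dissolved in DMSO and read at 450 nm. CC50 was derived, and SI calculated as A549 CC50 divided by C. haemulonii complex GM-MIC.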

Candida duobushaemulonii [1] = assay: Planktonic growth, broth microdilution (CLSI M27-A3), MIC; assay type: cell-based; settings: for GM-MIC: geometric mean of three C. duobushaemulonii isolates; for MIC: planktonic, 48 h, 37°C
In short: (§1)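 Clinical isolates (nail, blood, urine) grown 48 h at 37°C in Sabouraud-dextrose, then tested by CLSI M27-A3 broth microdilution in RPMI 1640 over 0.0625-32 mg/L, 48 h at 37°C. MIC is the lowest concentration with no visible growth; geometric mean MIC calculated across all isolates.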

Candida haemulonii [2] = assay: as above; assay type: cell-based; settings: for GM-MIC: geometric mean of three C. haemulonii isolates; for MIC: planktonic, 48 h, 37°C
In short: as §1

[3] = system: Candida haemulonii var. vulnera; assay: as above; assay type: cell-based; settings: for GM-MIC: geometric mean of three C. haemulonii var. vulnera isolates; for MIC: planktonic, 48 h, 37°C
In short: as §1

[4] = system: Candida haemulonii complex; assay: Biofilm-growing cells, overall across isolates; assay type: cell-based; settings: for Overall GM-bMIC: geometric mean across strains, values marked * do not include LIP Ch4 (>512); for decrease in activity on going from planktonic to biofilm cells: biofilm MIC versus planktonic MIC
Protocol: (§2) The effect of the compounds on biofilm-growing cells was determined using the previously described microtiter-based technique (Ramage et al., [2001]). The fungi (10^6 yeast cells) were incubated for 48 h at 37°C in 96-well polystyrene microtiter plates (Corning®, Corning Incorporated, USA) containing Sabouraud-dextrose broth to accommodate biofilm formation. Following biofilm formation, the culture medium was aspirated and non-adherent cells removed by thoroughly washing the wells three times with sterile PBS (0.15 M NaCl, 0.01 M phosphate buffer, pH 7.2). Afterwards, the compounds, at the same concentrations used in the planktonic assays, were added to the wells, and the plates were incubated for further 48 h at 37°C. The metabolic activity was then evaluated using a colorimetric assay that measures the metabolic reduction of 2,3-bis (2-methoxy-4-nitro-5-sulfophenyl)-5-[(phenylamino) carbonyl]-2H-tetrazolium hydroxide (XTT; Sigma-Aldrich) to a water-soluble, brown formazan product (Peeters et al., [2008]). The biofilm MIC (bMIC) for each compound was established as the minimal concentration capable of inhibiting 50% of metabolic activity when compared to compound-free wells (Ziccardi et al., [2015]).

Candida duobushaemulonii [5] = assay: Biofilm-growing cells, XTT assay, bMIC; assay type: cell-based; settings: for GM-bMIC: geometric mean, C. duobushaemulonii isolates; for bMIC: mature biofilm, 48 h, 50% inhibition of metabolic activity
Protocol: as §2

Candida haemulonii [6] = assay: Biofilm-growing cells, XTT assay, bMIC; assay type: cell-based; settings: for GM-bMIC: geometric mean, C. haemulonii isolates, values marked * do not include LIP Ch4 (>512); for bMIC: mature biofilm, 48 h, 50% inhibition of metabolic activity
Protocol: as §2

[7] = system: Candida haemulonii var. vulnera; assay: Biofilm-growing cells, XTT assay, bMIC; assay type: cell-based; settings: for GM-bMIC: geometric mean, C. haemulonii var. vulnera isolates; for bMIC: mature biofilm, 48 h, 50% inhibition of metabolic activity
Protocol: as §2

C. haemulonii complex = assay: Planktonic growth, overall across all nine isolates; assay type: cell-based, Candida haemulonii complex; settings: geometric mean across all nine strains; for MIC: in μM, read-out: Overall GM-MIC
In short: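 Visual read-out: MIC taken as the lowest concentration showing no growth after 48 h incubation at 37°C in RPMI 1640. Compounds were serially diluted from DMSO solutions to 0.0625-32 mg/L, with matching DMSO controls, against three clinical isolates of each species.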

SMILES | A549 (CC50) (A549 cells) [µg/mL] | GM-MIC (Candida duobushaemulonii [1]) [µg/mL] | MIC (Candida duobushaemulonii [1]; isolate LIP Ch1) [µg/mL] | MIC (Candida duobushaemulonii [1]; isolate LIP Ch6) [µg/mL] | MIC (Candida duobushaemulonii [1]; isolate LIP Ch8) [µg/mL] | GM-MIC (Candida haemulonii [2]) [µg/mL] | MIC (Candida haemulonii [2]; isolate LIP Ch4) [µg/mL] | MIC (Candida haemulonii [2]; isolate LIP Ch7) [µg/mL] | MIC (Candida haemulonii [2]; isolate LIP Ch12) [µg/mL] | GM-MIC [3] [µg/mL] | MIC ([3]; isolate LIP Ch5) [µg/mL] | MIC ([3]; isolate LIP Ch9) [µg/mL] | MIC ([3]; isolate LIP Ch11) [µg/mL] | Overall GM-bMIC [4] [mg/L] | GM-bMIC (Candida duobushaemulonii [5]) [mg/L] | bMIC (Candida duobushaemulonii [5]; isolate LIP Ch1) [mg/L] | GM-bMIC (Candida haemulonii [6]) | bMIC (Candida haemulonii [6]; isolate LIP Ch4) [mg/L] | bMIC (Candida haemulonii [6]; isolate LIP Ch7) [mg/L] | bMIC (Candida haemulonii [6]; isolate LIP Ch14) [mg/L] | further results
O.O.O.O.O.O.O.O.O.O.O.O.O.O.O.O.O=C([O-])c1cccc(C(=O)[O-])c1.O=C([O-])c1cccc(C(=O)[O-])c1.[Mn+2].[Mn+2].c1cnc2c(c1)ccc1cccnc12.c1cnc2c(c1)ccc1cccnc12.c1cnc2c(c1)ccc1cccnc12.c1cnc2c(c1)ccc1cccnc12.c1cnc2c(c1)ccc1cccnc12 [compound 11, {[Mn(phen)2(H2O)2]}2(isoph)2(phen).12H2O] | 251.76 | 2.52 | 2 | 4 | 2 | 2.52 | 4 | 2 | 2 | 2.52 | 4 | 2 | 2 | 8.72 | 6.35 | 8 | 16^* mg/L | >512 | 8 | 32 | bMIC (Candida duobushaemulonii [5]; isolate LIP Ch6): 8 mg/L; bMIC (Candida duobushaemulonii [5]; isolate LIP Ch8): 4 mg/L; GM-bMIC [7]: 8 mg/L; bMIC ([7]; isolate LIP Ch5): 16 mg/L; bMIC ([7]; isolate LIP Ch9): 4 mg/L; bMIC ([7]; isolate LIP Ch13): 8 mg/L; Overall GM-MIC (C. haemulonii complex): 2.52 µg/mL; MIC (C. haemulonii complex): 1.54 µM
O.O.O.O.O.O=C([O-])c1ccc(C(=O)[O-])cc1.[Mn+2].c1cnc2c(c1)ccc1cccnc12.c1cnc2c(c1)ccc1cccnc12 [compound 12, [Mn(tereph)(phen)2].5H2O] | 251.94 | 4 | 4 | 4 | 4 | 4 | 4 | 4 | 4 | 4 | 4 | 4 | 4 | 10.37 | 16 | 32 | 16^* mg/L | >512 | 16 | 16 | Overall GM-bMIC ([4]; in μM): 15.48 µM; bMIC (Candida duobushaemulonii [5]; isolate LIP Ch6): 8 mg/L; bMIC (Candida duobushaemulonii [5]; isolate LIP Ch8): 16 mg/L; GM-bMIC [7]: 5.04 mg/L; bMIC ([7]; isolate LIP Ch5): 2 mg/L; bMIC ([7]; isolate LIP Ch9): 4 mg/L; bMIC ([7]; isolate LIP Ch13): 16 mg/L; Overall GM-MIC (C. haemulonii complex): 4 µg/mL; MIC (C. haemulonii complex): 5.96 µM
O.O.O.O.O.O.O=C([O-])CCCCCCC(=O)[O-].O=C([O-])CCCCCCC(=O)[O-].O=C([O-])CCCCCCC(=O)[O-].O=C([O-])CCCCCCC(=O)[O-].[Mn+2].[Mn+2].[Mn+2].[Mn+2].c1cnc2c(c1)ccc1cccnc12.c1cnc2c(c1)ccc1cccnc12.c1cnc2c(c1)ccc1cccnc12.c1cnc2c(c1)ccc1cccnc12.c1cnc2c(c1)ccc1cccnc12.c1cnc2c(c1)ccc1cccnc12.c1cnc2c(c1)ccc1cccnc12.c1cnc2c(c1)ccc1cccnc12 [compound 13, [Mn2(oda)(phen)4(H2O)2][Mn2(oda)(phen)4(oda)2].4H2O] | >512 | 2.52 | 2 | 4 | 2 | 2 | 2 | 2 | 2 | 2 | 2 | 2 | 2 | 8.72 | 5.04 | 4 | 22.63^* mg/L | >512 | 32 | 16 | bMIC (Candida duobushaemulonii [5]; isolate LIP Ch6): 4 mg/L; bMIC (Candida duobushaemulonii [5]; isolate LIP Ch8): 8 mg/L; GM-bMIC [7]: 8 mg/L; bMIC ([7]; isolate LIP Ch5): 16 mg/L; bMIC ([7]; isolate LIP Ch9): 4 mg/L; bMIC ([7]; isolate LIP Ch13): 8 mg/L; Overall GM-MIC (C. haemulonii complex): 2.16 µg/mL; MIC (C. haemulonii complex): 0.87 µM
O=C1C(=O)c2cccnc2-c2ncccc21.O=C1C(=O)c2cccnc2-c2ncccc21.[Ag+].[O-][Cl+3]([O-])([O-])[O-] [compound 15, [Ag(phendione)2]ClO4] | 3.76 | 2 | 2 | 2 | 2 | 1 | 1 | 1 | 1 | 1.26 | 2 | 1 | 1 | 16 | 10.08 | 8 | 11.31^* mg/L | >512 | 8 | 16 | decrease in activity on going from planktonic to biofilm cells [4]: 11.8 fold; Overall GM-bMIC ([4]; in μM): 25.48 µM; bMIC (Candida duobushaemulonii [5]; isolate LIP Ch6): 32 mg/L; bMIC (Candida duobushaemulonii [5]; isolate LIP Ch8): 4 mg/L; GM-bMIC [7]: 32 mg/L; bMIC ([7]; isolate LIP Ch5): 32 mg/L; bMIC ([7]; isolate LIP Ch9): 32 mg/L; bMIC ([7]; isolate LIP Ch13): 32 mg/L; Overall GM-MIC (C. haemulonii complex): 1.36 µg/mL; MIC (C. haemulonii complex): 2.16 µM
[Ag+].[O-][Cl+3]([O-])([O-])[O-].c1cnc2c(c1)ccc1cccnc12.c1cnc2c(c1)ccc1cccnc12 [compound 17, [Ag(phen)2]ClO4] | 2.07 | 1.59 | 2 | 1 | 2 | 1 | 1 | 1 | 1 | 0.63 | 1 | 0.5 | 0.5 | 12.34 | 10.08 | 16 | 20.16 mg/L | 32 | 32 | 8 | decrease in activity on going from planktonic to biofilm cells [4]: 12.3 fold; Overall GM-bMIC ([4]; in μM): 21.73 µM; GM-bMIC [7]: 8 mg/L; bMIC ([7]; isolate LIP Ch9): 0.5 mg/L; bMIC ([7]; isolate LIP Ch13): 8 mg/L; Overall GM-MIC (C. haemulonii complex): 1 µg/mL; MIC (C. haemulonii complex): 1.76 µM
O.O.O.O=C([O-])CCCCCCCCCC(=O)[O-].[Ag+].[Ag+].c1cnc2c(c1)ccc1cccnc12.c1cnc2c(c1)ccc1cccnc12.c1cnc2c(c1)ccc1cccnc12 [compound 18, [Ag2(phen)3(udda)].3H2O] | 13.63 | 0.5 | 0.5 | 0.25 | 1 | 0.16 | 0.125 | 0.25 | 0.125 | 0.25 | 0.5 | 0.125 | 0.25 | 12.34 | 10.08 | 16 | 16 mg/L | 32 | 8 | 16 | decrease in activity on going from planktonic to biofilm cells [4]: 46.3 fold; Overall GM-bMIC ([4]; in μM): 12.04 µM; bMIC (Candida duobushaemulonii [5]; isolate LIP Ch6): 8 mg/L; bMIC (Candida duobushaemulonii [5]; isolate LIP Ch8): 8 mg/L; GM-bMIC [7]: 11.31 mg/L; bMIC ([7]; isolate LIP Ch5): 8 mg/L; bMIC ([7]; isolate LIP Ch9): 0.5 mg/L; bMIC ([7]; isolate LIP Ch13): 16 mg/L; Overall GM-MIC (C. haemulonii complex): 0.27 µg/mL; MIC (C. haemulonii complex): 0.26 µM
